Results as given in PubChem BioAssay AID1259407 (Chemical Carcinogenesis Research Information System (CCRIS), 2018).
The source made the active and inactive calls. The rule behind the calls is not given here.

System: CCRIS mutagenicity, Ames/micronucleus/aberration tests
Test: CCRIS mutagenicity studies
[1] = Test System: AMES SALMONELLA TYPHIMURIUM, Strain/Indicator: TA98, Metabolic Activation: NONE, Method: PREINCUBATION
[2] = Test System: AMES SALMONELLA TYPHIMURIUM, Strain/Indicator: TA98, Metabolic Activation: RAT LIVER S-9, PHENOBARBITAL AND BETA-NAPHTHOFLAVONE, Method: PREINCUBATION
[3] = Test System: AMES SALMONELLA TYPHIMURIUM, Strain/Indicator: TA100, Metabolic Activation: NONE, Method: PREINCUBATION
[4] = Test System: AMES SALMONELLA TYPHIMURIUM, Strain/Indicator: TA100, Metabolic Activation: NONE, Method: STANDARD PLATE
[5] = Test System: AMES SALMONELLA TYPHIMURIUM, Strain/Indicator: TA100, Metabolic Activation: RAT LIVER S-9, PHENOBARBITAL AND BETA-NAPHTHOFLAVONE, Method: PREINCUBATION
[6] = Test System: AMES SALMONELLA TYPHIMURIUM, Strain/Indicator: TA100, Metabolic Activation: RAT, LIVER, S-9, AROCLOR 1254, Method: STANDARD PLATE
[7] = Test System: AMES SALMONELLA TYPHIMURIUM, Strain/Indicator: TA102, Metabolic Activation: NONE, Method: PREINCUBATION
[8] = Test System: AMES SALMONELLA TYPHIMURIUM, Strain/Indicator: TA102, Metabolic Activation: RAT LIVER S-9, PHENOBARBITAL AND BETA-NAPHTHOFLAVONE, Method: PREINCUBATION
[9] = Test System: AMES SALMONELLA TYPHIMURIUM, Strain/Indicator: TA104, Metabolic Activation: NONE, Method: PREINCUBATION
[10] = Test System: AMES SALMONELLA TYPHIMURIUM, Strain/Indicator: TA104, Metabolic Activation: RAT LIVER S-9, PHENOBARBITAL AND BETA-NAPHTHOFLAVONE, Method: PREINCUBATION
[11] = Test System: AMES SALMONELLA TYPHIMURIUM, Strain/Indicator: TA1535, Metabolic Activation: NONE, Method: PREINCUBATION
[12] = Test System: AMES SALMONELLA TYPHIMURIUM, Strain/Indicator: TA1535, Metabolic Activation: RAT LIVER S-9, PHENOBARBITAL AND BETA-NAPHTHOFLAVONE, Method: PREINCUBATION
[13] = Test System: AMES SALMONELLA TYPHIMURIUM, Strain/Indicator: TA1537, Metabolic Activation: RAT LIVER S-9, PHENOBARBITAL AND BETA-NAPHTHOFLAVONE, Method: PREINCUBATION
[14] = Test System: E.COLI, Strain/Indicator: WP2UVRA/PKM101, Metabolic Activation: NONE, Method: PREINCUBATION
[15] = Test System: E.COLI, Strain/Indicator: WP2UVRA/PKM101, Metabolic Activation: RAT LIVER S-9, PHENOBARBITAL AND BETA-NAPHTHOFLAVONE, Method: PREINCUBATION
[16] = Test System: E.COLI, Strain/Indicator: WP2UVRA, Metabolic Activation: NONE, Method: PREINCUBATION
[17] = Test System: E.COLI, Strain/Indicator: WP2UVRA, Metabolic Activation: RAT LIVER S-9, PHENOBARBITAL AND BETA-NAPHTHOFLAVONE, Method: PREINCUBATION
[18] = Test System: AMES SALMONELLA TYPHIMURIUM, Strain/Indicator: TA98, Metabolic Activation: NONE, Method: STANDARD PLATE
[19] = Test System: AMES SALMONELLA TYPHIMURIUM, Strain/Indicator: TA98, Metabolic Activation: RAT, LIVER, S-9, AROCLOR 1254, Method: STANDARD PLATE
[20] = Test System: AMES SALMONELLA TYPHIMURIUM, Strain/Indicator: TA1535, Metabolic Activation: NONE, Method: STANDARD PLATE

CN(C)N
mutagenic call (End Point: IN VITRO CHROMOSOMAL ABERRATIONS, Test System: CHL CELLS, Metabolic Activation: NONE): active; positive (structural changes) | mutagenic call (End Point: IN VITRO CHROMOSOMAL ABERRATIONS, Test System: CHL CELLS, Metabolic Activation: RAT, LIVER, S-9, SODIUM PHENOBARBITAL AND 5,6-BENZOFLAVONE): active; positive (structural changes) | mutagenic call [1]: inactive; negative | mutagenic call [2]: inactive; negative | mutagenic call [3]: inactive; negative | mutagenic call [4]: inactive; negative | mutagenic call [5]: inactive; negative | mutagenic call (Test System: AMES SALMONELLA TYPHIMURIUM, Strain/Indicator: TA100, Metabolic Activation: RAT, LIVER, S-9, AROCLOR 1254 (1 OR 2 MG), Method: STANDARD PLATE): inactive; negative | mutagenic call [6]: inactive; negative | mutagenic call [7]: inactive; negative | mutagenic call (Test System: AMES SALMONELLA TYPHIMURIUM, Strain/Indicator: TA102, Metabolic Activation: NONE, Method: STANDARD PLATE): inactive; negative | mutagenic call [8]: inactive; negative | mutagenic call (Test System: AMES SALMONELLA TYPHIMURIUM, Strain/Indicator: TA102, Metabolic Activation: RAT, LIVER, S-9, AROCLOR 1254 (1 OR 2 MG), Method: STANDARD PLATE): inactive; negative | mutagenic call (Test System: AMES SALMONELLA TYPHIMURIUM, Strain/Indicator: TA102, Metabolic Activation: RAT, LIVER, S-9, AROCLOR 1254, Method: STANDARD PLATE): inactive; negative | mutagenic call [9]: inactive; negative | mutagenic call [10]: inactive; negative | mutagenic call (Test System: AMES SALMONELLA TYPHIMURIUM, Strain/Indicator: TA1530, Metabolic Activation: NONE, Method: STANDARD PLATE): active; positive | mutagenic call [11]: inactive; negative | mutagenic call [12]: inactive; negative | mutagenic call (Test System: AMES SALMONELLA TYPHIMURIUM, Strain/Indicator: TA1535, Metabolic Activation: RAT, LIVER, S-9, AROCLOR 1254, Method: PREINCUBATION): inactive; negative | mutagenic call [13]: inactive; negative | mutagenic call (Test System: AMES SALMONELLA TYPHIMURIUM, Strain/Indicator: TA1537, Metabolic Activation: RAT, LIVER, S-9, AROCLOR 1254, Method: PREINCUBATION): inactive; negative | mutagenic call (Test System: AMES SALMONELLA TYPHIMURIUM, Strain/Indicator: TA2638, Metabolic Activation: NONE, Method: STANDARD PLATE): active; positive | mutagenic call (Test System: E. COLI, Strain/Indicator: WP2 (PKM101), Metabolic Activation: NONE, Method: STANDARD PLATE): active; positive | mutagenic call (Test System: E. COLI, Strain/Indicator: WP2 UVRA (PKM101), Metabolic Activation: NONE, Method: STANDARD PLATE): active; positive | mutagenic call [14]: inactive; negative | mutagenic call [15]: inactive; negative | mutagenic call [16]: inactive; negative | mutagenic call [17]: inactive; negative

O=[N+]([O-])c1[nH]cnc1-c1ccccc1
mutagenic call [4]: active; positive

OCCNc1ccc(N=Nc2ccc(N(CCO)CCO)cc2)cc1
mutagenic call (Test System: AMES SALMONELLA TYPHIMURIUM, Strain/Indicator: TA98, Metabolic Activation: HAMSTER, LIVER, S-9, AROCLOR 1254, Method: STANDARD PLATE): inactive; negative | mutagenic call [18]: inactive; negative | mutagenic call (Test System: AMES SALMONELLA TYPHIMURIUM, Strain/Indicator: TA98, Metabolic Activation: RAT, LIVER, S-9, AROCLOR 1254, Method: PREINCUBATION): inactive; negative | mutagenic call [19]: inactive; negative | mutagenic call [4]: inactive; negative | mutagenic call [6]: inactive; negative | mutagenic call [20]: inactive; negative | mutagenic call (Test System: AMES SALMONELLA TYPHIMURIUM, Strain/Indicator: TA1535, Metabolic Activation: RAT, LIVER, S-9, AROCLOR 1254, Method: STANDARD PLATE): inactive; negative | mutagenic call (Test System: AMES SALMONELLA TYPHIMURIUM, Strain/Indicator: TA1537, Metabolic Activation: NONE, Method: STANDARD PLATE): inactive; negative | mutagenic call (Test System: AMES SALMONELLA TYPHIMURIUM, Strain/Indicator: TA1537, Metabolic Activation: RAT, LIVER, S-9, AROCLOR 1254, Method: STANDARD PLATE): inactive; negative | mutagenic call (Test System: AMES SALMONELLA TYPHIMURIUM, Strain/Indicator: TA1538, Metabolic Activation: NONE, Method: STANDARD PLATE): inactive; negative | mutagenic call (Test System: AMES SALMONELLA TYPHIMURIUM, Strain/Indicator: TA1538, Metabolic Activation: RAT, LIVER, S-9, AROCLOR 1254, Method: STANDARD PLATE): inactive; negative

ClC1=C(Cl)[C@]2(Cl)C3C(Cl)C(Cl)CC3[C@@]1(Cl)C2(Cl)Cl (some centres undefined)
mutagenic call (Test System: AMES SALMONELLA TYPHIMURIUM, Strain/Indicator: TA100, Metabolic Activation: NONE, Method: DESICCATOR): active; positive

O=C(/C=C/c1ccccc1)c1ccc(O)cc1
mutagenic call [18]: inactive; negative | mutagenic call [19]: inactive; negative | mutagenic call [4]: inactive; negative | mutagenic call [6]: inactive; negative

COC(=O)[C@@H]1[C@H]2C[C@H]3c4[nH]c5ccccc5c4CCN3C[C@@H]2CC[C@@H]1O
mutagenic call (Test System: Mouse lymphoma, Strain/Indicator: L5178Y (tk+/tk-), Metabolic Activation: None, Method: Suspension/plate): inactive; inconclusive (previous evaluation negative) | mutagenic call (Test System: Mouse lymphoma, Strain/Indicator: L5178Y (tk+/tk-), Metabolic Activation: Rat, Liver, S-9, Aroclor 1254, Method: Suspension/plate): inactive; inconclusive (previous evaluation negative)

NCCCN1CCN(CCCN)CC1
mutagenic call [1]: inactive; negative | mutagenic call [2]: inactive; negative | mutagenic call [3]: inactive; negative | mutagenic call [5]: inactive; negative | mutagenic call [7]: inactive; negative | mutagenic call [8]: inactive; negative | mutagenic call [9]: inactive; negative | mutagenic call [10]: inactive; negative | mutagenic call [11]: inactive; negative | mutagenic call [12]: inactive; negative | mutagenic call (Test System: AMES SALMONELLA TYPHIMURIUM, Strain/Indicator: TA1537, Metabolic Activation: NONE, Method: PREINCUBATION): inactive; negative | mutagenic call [13]: inactive; negative | mutagenic call [14]: inactive; negative | mutagenic call [15]: inactive; negative | mutagenic call [16]: inactive; negative | mutagenic call [17]: inactive; negative

CC1(C(Cl)Cl)C2[C@@H](Cl)[C@H](Cl)C1(C(Cl)Cl)[C@@H](Cl)[C@@H]2Cl (some centres undefined)
mutagenic call [3]: inactive; negative

N=NCCCO
mutagenic call [20]: active; positive | mutagenic call (Test System: E. COLI, Strain/Indicator: WP2, Metabolic Activation: NONE, Method: STANDARD PLATE): active; positive | mutagenic call (Test System: E. COLI, Strain/Indicator: WP2 UVRA, Metabolic Activation: NONE, Method: STANDARD PLATE): active; positive
